PMC5983452 (PLoS ONE, 2018)
Counter-ions that a name gives are not always drawn.

What was measured:
in vitro [1] = format: in vitro ADME, SD rats; details: male, Sprague-Dawley
[2] = Hepatocyte stability, rat; format: in vitro ADME, SD rats
[3] = Rat pharmacokinetic study; format: in vivo, male Sprague Dawley rats; details: male Sprague Dawley
Procedure: (§1) 2. […] Food was returned 4 hours after dosing. […] 4. […] Food was returned 4 hours after dosing. […] Supplemental Results:SMYD2 compound characterization […] The […] nM (Figure S8A).

[4] = Monkey (NHP) pharmacokinetic study; format: in vivo, male cynomolgus monkeys; details: cynomolgus monkey, male Cynomolgus
Procedure: as §1

[5] = test system: panel of 140 cell lines grown in matrigel; assay: cells; details: read-out: growth effects in panel of 140 cell lines grown in matrigel (none observed up to)
in vitro [6] = details: male, CD-1, mouse, plasma, pH 7.4
Procedure: (§2) Caco-2 permeability. Caco-2 cells (obtained from the ATCC), between passage numbers 40 to 60, were seeded onto Millipore
(§3) Multiscreen plates at 1x10^5 cells/cm2 in Dulbecco's Modified Eagle Medium. Media was changed every two or three days. On
(§4) Day 20, the permeability study was performed using Hanks Balanced Salt Solution (HBSS) pH 7.4 buffer with 25 mM HEPES and
(§5) Incubations were carried out in an atmosphere of 5% CO2 with a relative humidity of
(§6) The monolayers were prepared by rinsing both basolateral and apical surfaces twice with HBSS at 37°C. Cells were
(§7) then incubated with HBSS in both apical and basolateral compartments for 40 min to stabilize physiological parameters. HBSS […]
(§8) removed and apical and basolateral samples diluted for analysis by LC-MS/MS. Permeability was assessed in duplicate, on two
(§9) different occasions. […] Compounds were quantified by LC-MS/MS analysis using a 5 point calibration curve. The starting concentration (C0) was determined from the dosing solution and
(§10) experimental recovery calculated from C0 and both apical and basolateral compartment concentrations. […]
(§11) (Papp) for each compound was calculated as: (dQ/dt)/(C0xA), where dQ/dt is the rate of permeation of the drug across the cells, C0 […]
(§12) Plasma protein binding. Plasma protein binding was assessed by equilibrium dialysis utilizing the HT-dialysis cell format with a […]

in vitro [7] = details: human, plasma, pH 7.4, Human fu (unbound fraction)
Procedure: as §2, §3, §4, §5, §6, §7, §8, §9, §10, §11, §12

lung cancer cell lines = details: read-out: impact on proliferation of NSCLC and other lung cancer cell lines (none at concentrations as high as)
KYSE-150 = assay: Cell proliferation, KYSE-150; format: cell-based; details: Homo sapiens, read-out: Cellular Proliferation IC50
Procedure: Cell lines used in these experiments were obtained from the following sources and were cultured according to conditions specified by the respective cell banks. […] The cell lines listed above were tested for mycoplasma and were negative. Cells were authenticated by STR method or vendor protocols. All 313 cell lines in the CRIPSR pooled screen were purchased from commercial vendors and were STR authenticated and mycoplasma negative. A broad panel of cancer cell lines was screened in the Eurofins Oncopanel. All cells in this panel were mycoplasma negative and STR verified.
Thus, 5 compounds representing 4 distinct pharmacophore series of SMYD2 inhibitors are now available for testing the dependence of cancer lines on SMYD2 activity. […] In stark contrast, however, no correlation is seen between the potency for BTF3 methylation inhibition and anti-proliferative activity among these compounds (Fig 3B).

Caco-2 permeability = details: human, 10 µM
Procedure: as §2, §3, §4, §5, §6
(§13) then incubated with HBSS in both apical and basolateral compartments for 40 min to stabilize physiological parameters. HBSS
(§14) was then removed from the apical or basolateral compartment and replaced with 10 µM test compound dosing solutions (1% final
(§15) DMSO). The pH of supplemented HBSS was 6.5 and 7.5 in the apical and basolateral compartments, respectively. The apical
(§16) compartment inserts were then placed into ‘companion’ plates containing fresh HBSS.
as §8
(§17) different occasions. On each plate atenolol and propanolol were run as controls. Compounds were quantified by LC-MS/MS analysis using a 5 point calibration curve. The starting concentration (C0) was determined from the dosing solution and
(§18) experimental recovery calculated from C0 and both apical and basolateral compartment concentrations. The permeability coefficient
(§19) (Papp) for each compound was calculated as: (dQ/dt)/(C0xA), where dQ/dt is the rate of permeation of the drug across the cells, C0
(§20) is the donor compartment concentration at time zero and A is the area of the cell monolayer.
(§21) Plasma protein binding. Plasma protein binding was assessed by equilibrium dialysis utilizing the HT-dialysis cell format with a
(§22) cellulose semi-permeable membrane (molecular weight cut-off of 5000 Da). Solutions of test compounds (1 µM, 0.5% final
(§23) DMSO concentration) were prepared in isotonic phosphate buffer (pH 7.4) and 100% pooled male CD-1 mouse plasma. The
(§24) buffer solution was added to one side of the membrane and the plasma solution to the other side. Incubations were performed in
(§25) Haloperidol was incubated in parallel as the control compound for each species. At the end of the incubation time, samples were taken from both sides of the membrane.
(§26) Following protein precipitation, the samples were analyzed by LC-MS/MS using two sets of calibration standards for protein free
(§27) (7 points) and protein containing solutions (6 points). Samples were quantified using standard curves prepared in the equivalent
(§28) matrix. The fraction unbound in plasma (fu) was calculated using the following equation:
(§29) Where, PC = sample concentration in protein containing side, PF = sample concentration in protein free side, and VCorrection =
(§30) correction factor for the volume shift i.e. ratio of the volume of the protein after dialysis to that before dialysis.

Caco-2 cells = assay: Caco-2 permeability
Procedure: as §2, §3, §4, §5, §6, §13, §14, §15, §16, §8, §17, §18, §19, §20, §21, §22, §23, §24, §25, §26, §27, §28, §29, §30

[8] = Plasma protein binding (equilibrium dialysis), mouse; details: male, CD-1, mouse, pH 7.4
Procedure: as §2, §3, §4, §5, §6, §7, §8, §9, §10, §11, §12

SMYD2 = SMYD2 (Homo sapiens, UniProt Q9NRG4); assay: SPR binding assay EPZ033294/SMYD2 (SensiQ); set-up: Full length FLAG-SMYD2 and C-terminally Avi-tagged full length SMYD2 (SMYD2-Avi) were cloned into pFastbac vectors; FLAG (N); His tag with TEV cleavage site (N, cleaved yes); made in house; host or cells: Sf9 insect cells (baculovirus); details: 15°C, 10 µM SAM in running buffer; read-out: dissociation constant (KD) by SPR
Procedure: The running buffer contained 25 mM Tris-HCl pH 8.0, 150 mM NaCl, 5 mM DTT, 10 µM ZnCl2, 0.05% Tween-20, 10 µM SAM, and 2% DMSO. Avi-tagged biotinylated SMYD2 was immobilized on a neutravidin-coupled BioCap chip up to 6000 RU. Streptavidin on the reference cell was blocked with biocytin. […] Dissociation time was 1000 sec. Analysis of double-referenced data was performed using the 1:1 binding model in QDAT data analysis tool (SensiQ Technologies Inc.).

[9] = plasma, IV 1 mg/kg, read-out: CLp
[10] = plasma, IV 1 mg/kg, read-out: Vss

Sequence of SMYD2 (Q9NRG4 whole entry): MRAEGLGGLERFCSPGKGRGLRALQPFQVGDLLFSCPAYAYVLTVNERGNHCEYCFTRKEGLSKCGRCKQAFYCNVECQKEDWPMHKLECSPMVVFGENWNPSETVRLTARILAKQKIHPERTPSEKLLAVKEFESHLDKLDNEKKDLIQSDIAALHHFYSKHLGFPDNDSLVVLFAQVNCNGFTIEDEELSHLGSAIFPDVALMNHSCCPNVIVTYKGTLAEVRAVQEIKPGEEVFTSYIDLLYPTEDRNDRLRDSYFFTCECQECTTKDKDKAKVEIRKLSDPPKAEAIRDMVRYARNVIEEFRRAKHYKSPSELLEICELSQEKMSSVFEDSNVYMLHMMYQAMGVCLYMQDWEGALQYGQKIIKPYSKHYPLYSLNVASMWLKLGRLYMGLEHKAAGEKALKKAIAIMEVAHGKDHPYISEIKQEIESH

Which “CLint measured with liver microsomes, Rat” value (in vitro [1]; 1 µM, pH 7.4) does the source give for NC1CCC(S(=O)(=O)N2C3CCC2CC(NC(=O)c2cc(C4CC4)on2)C3)CC1 [EPZ028862, N-((1R,3R,5S)-8-((1r,4R)-4-aminocyclohexylsulfonyl)-8-aza-bicyclo[3.2.1]octan-3-yl)-5-cyclopropylisoxazole-3-carboxamide hydrochloride] here?
The value was 3.4 µL/min/mg microsomal protein.

And the microsomal CLint at 1 µM (in vitro [1]; rat, microsomes, pH 7.4, CLint measured with liver microsomes)?
Its microsomal CLint at 1 µM is under 3 µL/min/mg.

And the “CLint measured with hepatocytes, Rat” value ([2]; 1 µM)?
The value was 3.5 µL/min/106 cells.

What about the hepatocyte CLint at 1 µM ([2]; male, Sprague-Dawley, rat, cryopreserved hepatocytes, read-out: CLint measured with hepatocytes, Rat) of the same compound?
Its hepatocyte CLint at 1 µM is 5.2 µL/min/1e6 cells.

What about the bioavailability ([3]; plasma, IV 1 mg/kg, PO 5 mg/kg) of the same compound?
The bioavailability was 59 ± 10%.

And the half-life ([3]; plasma, IV 1 mg/kg, PO 5 mg/kg)?
Its half-life is 2.1 ± 0.2 h.

What about the clearance [3, 9] of the same compound?
The clearance was 32.7 ± 4.4 mL/min/kg.

What about the Vd [3, 10] of the same compound?
Its Vd is 4.4 ± 0.1 L/kg.

What about the Tmax ([3]; plasma, PO 5 mg/kg) of the same compound?
The Tmax was 1 h.

What about the CL renal ([3]; urine and plasma, IV 1 mg/kg) of the same compound?
The CL renal was 21 ± 6 mL/min/kg.

And the MRT ([4]; plasma, IV 1 mg/kg, PO 5 mg/kg)?
The MRT was 7.4 ± 1.5 h.

And the bioavailability ([4]; plasma, IV 1 mg/kg, PO 5 mg/kg)?
The bioavailability was 62 ± 13%.

What about the half-life ([4]; plasma, IV 1 mg/kg, PO 5 mg/kg) of the same compound?
The half-life was 5.6 ± 1.3 h.

What about the clearance [4, 9] of the same compound?
Its clearance is 21.4 ± 3.4 mL/min/kg.

What about the Vd [4, 10] of the same compound?
The Vd was 9.5 ± 2.5 L/kg.

What about the Tmax ([4]; plasma, PO 5 mg/kg) of the same compound?
The Tmax was 2 h.

And the CL renal ([4]; urine and plasma, IV 1 mg/kg)?
Its CL renal is 1.06 ± 0.84 mL/min/kg.

What about the IC50 [5] of the same compound?
Its IC50 is over 25 µM.

What about the fraction unbound at 16 h, 1 µM (in vitro [6]) of the same compound?
The fraction unbound at 16 h, 1 µM was 0.51.

And the fraction unbound at 16 h, 1 µM (in vitro [7])?
Its fraction unbound at 16 h, 1 µM is 0.71.

And the IC50 (lung cancer cell lines)?
The IC50 was over 25 µM.

Which IC50 (KYSE-150) does the source give for O=C(NC1CN(Cc2cnn(Cc3ccc(Cl)cc3)c2)C1)c1cn(C2CC2)nn1 [EPZ033294] here?
Its IC50 is over 40 µM.

What about the Papp A→B at 120 min, 10 µM (Caco-2 permeability; Caco-2, Papp,AB, apical pH 6.5 / basolateral pH 7.5, 120 min) of the same compound?
The Papp A→B at 120 min, 10 µM was 2.18 ×10⁻⁶ cm/s.

And the Papp B→A at 120 min, 10 µM (Caco-2 permeability; Caco-2, Papp,BA, 120 min)?
Its Papp B→A at 120 min, 10 µM is 64.3 ×10⁻⁶ cm/s.

What about the “Caco-2 assay outcome in words” value (Caco-2 cells) of the same compound?
The value was “both permeable and an efflux substrate”.

And the fraction unbound at 16 h, 1 µM [8]?
Its fraction unbound at 16 h, 1 µM is 0.26.

And the Kd (SMYD2)?
Its Kd is 0.005 µM.
